{"source": "patent US10865191B2", "about": "“Heterocyclic compounds useful as modulators of TNF alpha” (BRISTOL-MYERS SQUIBB COMPANY, priority 2015, dated 2020)"}
{"target": "TNFα (Homo sapiens, UniProt P01375)", "sequence (P01375 77-233 limits assumed)": "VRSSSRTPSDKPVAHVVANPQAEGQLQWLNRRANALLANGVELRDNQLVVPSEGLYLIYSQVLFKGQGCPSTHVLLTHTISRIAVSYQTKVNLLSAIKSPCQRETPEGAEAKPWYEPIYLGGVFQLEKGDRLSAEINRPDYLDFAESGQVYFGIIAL", "assay": "TNF induced HEK-Blue assay (NF-kB-driven secreted alkaline phosphatase reporter)", "format": "cell-based", "settings": "TNF induced HEK-Blue assay IC50 value, TNFα 0.5 ng/mL, HEK-Blue-CD40L cells, 18 h", "how_it_was_run": "(§1)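 HEK-Blue-CD40L cells (NF-kB-driven SEAP reporter), 20,000/well, added after 30 min pre-incubation of compound (0.004–25 μM final) with TNFα 0.5 ng/mL final at 37 °C; 18 h incubation. SEAP read with QUANTI-Blue at 620 nm; IC50 from 4-parameter logistic fit, normalized to unstimulated and stimulated DMSO controls.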", "units": {"IC50": "µM"}}
{"compound": "C[C@@H](Nc1c(Cl)cnc2ccc(-c3cnc(N4CCN(CC(N)=O)CC4)nc3)cc12)c1ccccc1F", "note": "[Example 90, (R)-2-(4-(5-(3-chloro-4-((1-(2-fluorophenyl)ethyl)amino)quinolin-6-yl)pyrimidin-2-yl)piperazin-1-yl)acetamide]", "IC50": "< 1"}
{"compound": "CC(=O)N1CCC[C@H]([C@H](C)Nc2c(Cl)cnc3ccc(-c4cnc(C(C)(C)O)nc4)cc23)C1", "note": "[Example 107, 1-((S)-3-((S)-1-((3-chloro-6-(2-(2-hydroxypropan-2-yl)pyrimidin-5-yl)quinolin-4-yl)amino)ethyl)piperidin-1-yl)ethanone]", "IC50": "< 1"}
{"target": "TNFα (Homo sapiens, UniProt P01375)", "assay": "TNF induced HEK-Blue assay (NF-kB-driven secreted alkaline phosphatase reporter)", "format": "cell-based", "settings": "TNFα 0.5 ng/mL, HEK-Blue-CD40L cells, 18 h; read-out: TNF induced HEK-Blue assay IC50 value", "how_it_was_run": "as §1", "units": {"IC50": "µM"}}
{"compound": "C[C@@H](Nc1c(Cl)cnc2ccc(-c3ccc(N4CCNCC4)nc3)cc12)c1ccccc1F", "note": "[Example 88, (R)-3-chloro-N-(1-(2-fluorophenyl)ethyl)-6-(6-(piperazin-1-yl)pyridin-3-yl)quinolin-4-amine]", "IC50": "1 to 10"}
{"compound": "CNC(=O)CN1CCN(c2ncc(-c3ccc4ncc(Cl)c(N[C@H](C)c5ccccc5F)c4c3)cn2)CC1", "note": "[Example 89, (R)-2-(4-(5-(3-chloro-4-((1-(2-fluorophenyl)ethyl)amino)quinolin-6-yl)pyrimidin-2-yl)piperazin-1-yl)-N-methylacetamide]", "IC50": "< 1"}
{"compound": "C[C@@H](Nc1c(Cl)cnc2ccc(-c3cnc(N4CCN(CC(=O)NS(C)(=O)=O)CC4)nc3)cc12)c1ccccc1F", "note": "[Example 91, (R)-2-(4-(5-(3-chloro-4-((1-(2-fluorophenyl)ethyl)amino)quinolin-6-yl)pyrimidin-2-yl)piperazin-1-yl)-N-(methylsulfonyl)acetamide]", "IC50": "< 1"}
{"compound": "O=C(O)CN1CCN(c2ncc(-c3ccc4ncc(Cl)c(N[C@@H](c5ccccc5F)C(F)F)c4c3)cn2)CC1", "note": "[Example 92, (S)-2-(4-(5-(3-chloro-4-((2,2-difluoro-1-(2-fluorophenyl)ethyl)amino)quinolin-6-yl)pyrimidin-2-yl)piperazin-1-yl)acetic acid]", "IC50": "< 1"}
{"compound": "C[C@@H](Nc1c(Cl)cnc2ccc(-c3cnc(N4CCN([C@@H](CNC(=O)OC(C)(C)C)C(=O)O)CC4)nc3)cc12)c1ccccc1F", "note": "[Example 93, (S)-3-((tert-butoxycarbonyl)amino)-2-(4-(5-(3-chloro-4-(((R)-1-(2-fluorophenyl)ethyl)amino)quinolin-6-yl)pyrimidin-2-yl)piperazin-1-yl)propanoic acid]", "IC50": "1 to 10"}
{"compound": "C[C@@H](Nc1c(Cl)cnc2ccc(-c3cnc(N4CCN([C@@H](CN)C(=O)O)CC4)nc3)cc12)c1ccccc1F", "note": "[Example 94, (S)-3-amino-2-(4-(5-(3-chloro-4-(((R)-1-(2-fluorophenyl)ethyl)amino)quinolin-6-yl)pyrimidin-2-yl)piperazin-1-yl)propanoic acid]", "IC50": "< 1"}
{"compound": "CC(=O)NC[C@@H](C(=O)O)N1CCN(c2ncc(-c3ccc4ncc(Cl)c(N[C@H](C)c5ccccc5F)c4c3)cn2)CC1", "note": "[Example 95, (S)-3-acetamido-2-(4-(5-(3-chloro-4-(((R)-1-(2-fluorophenyl)ethyl)amino)quinolin-6-yl)pyrimidin-2-yl)piperazin-1-yl)propanoic acid]", "IC50": "1 to 10"}
{"compound": "COC(=O)[C@H](CN)N1CCN(c2ncc(-c3ccc4ncc(Cl)c(N[C@H](C)c5ccccc5F)c4c3)cn2)CC1", "note": "[Example 99, methyl (S)-3-amino-2-(4-(5-(3-chloro-4-(((R)-1-(2-fluorophenyl)ethyl)amino)quinolin-6-yl)pyrimidin-2-yl)piperazin-1-yl) propanoate]", "IC50": "1 to 10"}
{"compound": "C[C@@H](Nc1c(Cl)cnc2ccc(-c3ccc(C(N)CO)cc3)cc12)c1ccccc1F", "note": "(stereo partly drawn) [Example 100, 2-amino-2-(4-(3-chloro-4-(((R)-1-(2-fluorophenyl)ethyl)amino)quinolin-6-yl)phenyl)ethan-1-ol]", "IC50": "1 to 10"}
{"compound": "C[C@@H](Nc1c(Cl)cnc2ccc(-c3ccc(C(=O)NCCCCN)nc3)cc12)c1ccccc1F", "note": "[Example 101, (R)—N-(4-aminobutyl)-5-(3-chloro-4-((1-(2-fluorophenyl)ethyl)amino)quinolin-6-yl)picolinamide]", "IC50": "10 to 25"}
{"compound": "C[C@@H](Nc1c(Cl)cnc2ccc(-c3ccc(C4(N)CC4)cc3)cc12)c1ccccc1F", "note": "[Example 102, (R)-6-(4-(1-aminocyclopropyl)phenyl)-3-chloro-N-(1-(2-fluorophenyl)ethyl)quinolin-4-amine]", "IC50": "< 1"}
{"compound": "C[C@H](Nc1c(Cl)cnc2ccc(-c3cnc(C(C)(C)O)nc3)cc12)[C@H]1CCCN(C(N)=O)C1", "note": "[Example 103, (S)-3-((S)-1-((3-chloro-6-(2-(2-hydroxypropan-2-yl)pyrimidin-5-yl)quinolin-4-yl)amino)ethyl)piperidine-1-carboxamide]", "IC50": "1 to 10"}
{"compound": "CCN1CCC[C@H]([C@H](C)Nc2c(Cl)cnc3ccc(-c4cnc(C(C)(C)O)nc4)cc23)C1", "note": "[Example 105, 2-(5-(3-chloro-4-(((S)-1-((S)-1-ethylpiperidin-3-yl)ethyl)amino)quinolin-6-yl)pyrimidin-2-yl)propan-2-ol]", "IC50": "< 1"}
{"compound": "CC(Nc1c(Cl)cnc2ccc(-c3cnc(C(C)(C)O)nc3)cc12)[C@H]1CCCN(CC(O)CO)C1", "note": "(stereo partly drawn) [Example 106, 3-((S)-3-((S)-1-((3-chloro-6-(2-(2-hydroxypropan-2-yl)pyrimidin-5-yl)quinolin-4-yl)amino)ethyl)piperidin-1-yl)propane-1,2-diol]", "IC50": "1 to 10"}
{"compound": "COC(=O)[C@H](CNC(C)=O)N1CCN(c2ncc(-c3ccc4ncc(Cl)c(N[C@H](C)c5ccccc5F)c4c3)cn2)CC1", "note": "[Example 109, methyl (S)-3-acetamido-2-(4-(5-(3-chloro-4-(((R)-1-(2-fluorophenyl)ethyl)amino)quinolin-6-yl)pyrimidin-2-yl)piperazin-1-yl)propanoate]", "IC50": "1 to 10"}
{"compound": "CC(=O)NCc1ccc(-c2ccc3ncc(Cl)c(N[C@H](C)c4ccccc4F)c3c2)cc1", "note": "[Example 110, (R)—N-(4-(3-chloro-4-((1-(2-fluorophenyl)ethyl)amino)quinolin-6-yl)benzyl)acetamide]", "IC50": "< 1"}
{"compound": "C[C@@H](Nc1c(Cl)cnc2ccc(-c3ccc(C4(NS(C)(=O)=O)CCC4)cc3)cc12)c1ccccc1F", "note": "[Example 111, (R)—N-(1-(4-(3-chloro-4-((1-(2-fluorophenyl)ethyl)amino)quinolin-6-yl)phenyl)cyclobutyl)methanesulfonamide]", "IC50": "10 to 25"}
{"compound": "CC(=O)NC1(c2ccc(-c3ccc4ncc(Cl)c(N[C@H](C)c5ccccc5F)c4c3)cc2)CCC1", "note": "[Example 113, (R)—N-(1-(4-(3-chloro-4-((1-(2-fluorophenyl)ethyl)amino)quinolin-6-yl)phenyl)cyclobutyl)acetamide]", "IC50": "10 to 25"}
{"compound": "C[C@@H](Nc1c(Cl)cnc2ccc(-c3cnc(C4(O)CCC(=O)CC4)nc3)cc12)c1ccccc1F", "note": "[Example 114, (R)-4-(5-(3-chloro-4-((1-(2-fluorophenyl)ethyl)amino)quinolin-6-yl)pyrimidin-2-yl)-4-hydroxycyclohexanone]", "IC50": "< 1"}
{"compound": "C[C@@H](Nc1c(Cl)cnc2ccc(-c3ccc(C(O)(CF)CF)cc3)cc12)c1ccccc1F", "note": "[Example 117, (R)-2-(4-(3-chloro-4-((1-(2-fluorophenyl)ethyl)amino)quinolin-6-yl)phenyl)-1,3-difluoropropan-2-ol]", "IC50": "< 1"}
{"compound": "C[C@@H](Nc1c(Cl)cnc2ccc(-c3ccc(C4(N)CCC4)cc3)cc12)c1ccccc1F", "note": "[Example 118, (R)-6-(4-(1-aminocyclobutyl)phenyl)-3-chloro-N-(1-(2-fluorophenyl)ethyl)quinolin-4-amine]", "IC50": "< 1"}
{"compound": "C[C@@H](Nc1c(Cl)cnc2ccc(-c3cnc(C4(O)CCCC4)nc3)cc12)c1ccccc1F", "note": "[Example 120, (R)-1-(5-(3-chloro-4-((1-(2-fluorophenyl)ethyl)amino)quinolin-6-yl)pyrimidin-2-yl)cyclopentan-1-ol]", "IC50": "< 1"}
{"compound": "C[C@@H](Nc1c(Cl)cnc2ccc(-c3cnc([C@]4(O)CCC[C@H]4O)nc3)cc12)c1ccccc1F", "note": "[Example 121, (1R,2R)-1-(5-(3-chloro-4-(((R)-1-(2-fluorophenyl)ethyl)amino)quinolin-6-yl)pyrimidin-2-yl)cyclopentane-1,2-diol]", "IC50": "< 1"}
{"compound": "C=CC(=O)N1CCN(c2ccc(-c3ccc4ncc(Cl)c(N[C@H](C)c5ccccc5F)c4c3)cn2)CC1", "note": "[Example 123, (R)-1-(4-(5-(3-chloro-4-((1-(2-fluorophenyl)ethyl)amino)quinolin-6-yl)pyridin-2-yl)piperazin-1-yl)prop-2-en-1-one]", "IC50": "< 1"}
{"compound": "C=CC(=O)N(C)c1ncc(-c2ccc3ncc(Cl)c(N[C@H](C)c4ccccc4F)c3c2)cn1", "note": "[Example 124, (R)—N-(5-(3-chloro-4-((1-(2-fluorophenyl)ethyl)amino)quinolin-6-yl)pyrimidin-2-yl)-N-methylacrylamide]", "IC50": "< 1"}
{"compound": "CC#CC(=O)N1CCN(c2ccc(-c3ccc4ncc(Cl)c(N[C@H](C)c5ccccc5F)c4c3)cn2)CC1", "note": "[Example 125, (R)-1-(4-(5-(3-chloro-4-((1-(2-fluorophenyl)ethyl)amino)quinolin-6-yl)pyridin-2-yl)piperazin-1-yl)but-2-yn-1-one]", "IC50": "< 1"}
{"compound": "CCC(Nc1c(Cl)cnc2ccc(-c3cnc(C(C)(C)O)nc3)cc12)c1nc(C(O)CO)ccc1F", "note": "(stereo not shown) [Example 127, 1-(6-(1-((3-chloro-6-(2-(2-hydroxypropan-2-yl)pyrimidin-5-yl)quinolin-4-yl)amino)propyl)-5-fluoropyridin-2-yl)ethane-1,2-diol]", "IC50": "< 1"}
{"compound": "CCC(Nc1c(Cl)cnc2ccc(-c3cnc(C(C)(C)O)nc3)cc12)c1nc(C(=O)O)ccc1F", "note": "(stereo not shown) [Example 128, 6-(1-((3-chloro-6-(2-(2-hydroxypropan-2-yl)pyrimidin-5-yl)quinolin-4-yl)amino)propyl)-5-fluoropicolinic acid]", "IC50": "1 to 10"}
{"compound": "CCC(Nc1c(Cl)cnc2ccc(-c3cnc(C(C)(C)O)nc3)cc12)c1nc(C(N)=O)ccc1F", "note": "(stereo not shown) [Example 129, 6-(1-((3-chloro-6-(2-(2-hydroxypropan-2-yl)pyrimidin-5-yl)quinolin-4-yl)amino)propyl)-5-fluoropicolinamide]", "IC50": "< 1"}
